Source: patent US11472806B2, “Substituted heterocyclic compounds as allosteric modulators of group II metabotropic glutamate receptors” (Domain Therapeutics, priority 2017, dated 2022)
pEC50: −log10 of the molar value. Counter-ions that a name gives are not always drawn.

Key:
human mGluR3 (hmGluR3) = target: T1, human mGluR3 (hmGluR3) (Homo sapiens, UniProt Q14832); experiment: Human mGluR3 positive allosteric modulator evaluation using Ca++ functional assay; type: cell-based; details: hmGluR3 transiently over-expressed in HEK-293 cells; cells stimulated by an EC50 glutamate concentration; intracellular Ca2+ (Fluo4AM, FLIPR Tetra)
T1 construct: expressed in transfected cells; host or cells: HEK-293 cells, transient co-transfection by electroporation
Procedure: Example 89: Human mGluR3 Positive Allosteric Modulator Evaluation Using Ca++ Functional Assay
Compounds of the present invention were tested successively for their agonist and positive allosteric modulator activities on human mGluR3 (hmGluR3) transiently over-expressed in HEK-293 cells. Compounds exert agonist activity if they are able to activate hmGluR3 by themselves, i.e., in absence of the endogenous agonist glutamate; and they exert positive allosteric modulator activity if they increase the action of the endogenous agonist glutamate.
Cell Culture and Transfection:
HEK-293 cells were maintained in Modified Eagle's Medium supplemented with 10% Foetal Calf Serum, 1% Penicillin/Streptomycin and 1% non-essential amino acids at 37° C./5% CO2. Cells were co-transfected by electroporation with four DNA plasmids encoding hmGluR3, a chimeric G protein allowing redirection of the activation signal toward intracellular calcium pathway, and two glutamate transporters so as to decrease extracellular glutamate levels and avoid receptor desensitization (Brabet I et al., Neuropharmacology 37(8), 1043-51, 1998). After transfection, cells were seeded in 75 cm^2 culture flasks, and cultured for 24 h.
Calcium Assa EC50 determination:
Receptor activity was detected by changes in intracellular calcium measured using the fluorescent Ca^2+ sensitive dye, Fluo4AM (Molecular Probes).
The day of the assay, medium was aspirated and replaced during 3 hrs by freshly prepared buffer B (HBSS 1×, Hepes 20 mM, MgSO4-7H2O 1 mM, Na2CO3 3.3 mM, CaCl2-2H2O 1.3 mM, 0.5% BSA, Probenecid 2.5 mM). Then, cells were loaded at 37° C./5% CO2 for 1.5 hrs with buffer B containing 1 μM Fluo4AM, 0.1 mg/mL Pluronic Acid, 7 μg/mL Glutamate Pyruvate Transaminase and 2 mM sodium pyruvate. Afterwards cells were washed with buffer B. Cells were then detached from the 75 cm^2 culture flasks with Accutase® (5 min incubation at 37° C.), centrifuged (5 min at 840 rpm), resuspended in buffer B and finally seeded at a density of 30,000 cells/well in black-walled clear-bottom 384-well plates. Addition of compounds on cells and intracellular Ca^2+ measurements (excitation 485 nm, emission 525 nm) were performed by the fluorescence microplate reader FLIPR Tetra (Molecular Devices).
Agonist and positive allosteric modulator activities of compounds were consecutively evaluated on the same cells plate. Agonist activity was first tested during 10 min with the addition of compound alone on the cells. Then, the cells were stimulated by an EC50 glutamate concentration and fluorescence was recorded for additional 3 min. EC50 glutamate concentration is the concentration giving 50% of the maximal glutamate response. Agonist and/or positive allosteric modulator activity(ies) were evaluated in comparison to basal signal or signal evoked by EC50 glutamate concentration alone, respectively.
For potency determination, a dose-response test was performed using 20 concentrations of each compound of the invention. Dose-response curves were fitted using the sigmoïdal dose-response (variable slope) analysis in XLfit Scientific Curve Fitting for Excel (IDBS). EC50 of agonist/EC50 of positive allosteric modulator activity(ies) were calculated. Dose-response experiments were all performed in duplicate, two times independently.

T1 sequence (Q14832 23-879): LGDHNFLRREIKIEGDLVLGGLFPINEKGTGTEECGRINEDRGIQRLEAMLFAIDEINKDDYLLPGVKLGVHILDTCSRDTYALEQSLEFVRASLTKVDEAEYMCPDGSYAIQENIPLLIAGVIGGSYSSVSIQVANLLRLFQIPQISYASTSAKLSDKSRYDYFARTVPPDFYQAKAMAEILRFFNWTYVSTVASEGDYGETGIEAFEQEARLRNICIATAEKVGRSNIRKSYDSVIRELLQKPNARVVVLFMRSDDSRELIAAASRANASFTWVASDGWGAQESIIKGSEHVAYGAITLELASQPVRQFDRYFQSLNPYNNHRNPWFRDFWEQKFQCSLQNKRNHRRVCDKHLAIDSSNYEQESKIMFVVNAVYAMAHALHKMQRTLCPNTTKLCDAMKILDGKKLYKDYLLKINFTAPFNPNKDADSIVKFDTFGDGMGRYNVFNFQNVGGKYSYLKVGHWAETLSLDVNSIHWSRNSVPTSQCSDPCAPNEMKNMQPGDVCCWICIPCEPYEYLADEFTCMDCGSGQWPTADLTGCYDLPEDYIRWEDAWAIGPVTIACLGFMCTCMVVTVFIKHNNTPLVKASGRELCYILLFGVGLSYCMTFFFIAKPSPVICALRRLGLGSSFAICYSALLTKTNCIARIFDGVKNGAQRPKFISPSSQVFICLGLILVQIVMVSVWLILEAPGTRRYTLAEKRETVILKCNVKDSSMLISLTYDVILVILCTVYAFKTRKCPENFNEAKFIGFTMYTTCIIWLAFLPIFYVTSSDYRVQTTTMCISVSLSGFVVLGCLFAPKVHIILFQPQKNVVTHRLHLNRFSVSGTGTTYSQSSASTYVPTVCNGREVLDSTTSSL

Structure (SMILES)	melting point [°C]	pEC50 (human mGluR3 (hmGluR3))
Cc1ncccc1-c1ccc2c(c1)-c1ccccc1C(=O)N(C)C21CC1 (as salt: hydrochloride) [Example 21, 10-(2-Methyl-pyridin-3-yl)-6-methyl-6,7-dihydro-spiro[dibenzo[c,e]azepine-7,1′-cyclopropan]-5-one, hydrochloride]	> 250	–
Cc1ncccc1-c1cc2c(nn1)CN(C)C(=O)c1cccn1-2 (as salt: hydrochloride) [Example 8, 5-Methyl-9-(2-methyl-pyridin-3-yl)-5,6-dihydro-5,7,8,10b-tetraaza-benzo[e]azulen-4-one, dihydrochloride]	> 250	–
Cc1ncccc1-c1cnc2c(n1)-n1cccc1C(=O)N(C)C2 (as salt: hydrochloride) [Example 7, 5-Methyl-9-(2-methyl-pyridin-3-yl)-5,6-dihydro-5,7,10,10b-tetraaza-benzo[e]azulen-4-one, dihydrochloride]	> 250	–
Cc1ncccc1-c1cnc2c(c1)-n1cccc1C(=O)N(C)C2 (as salt: hydrochloride) [Example 6, 5-Methyl-9-(2-methyl-pyridin-3-yl)-5,6-dihydro-5,7,10b-triaza-benzo[e]azulen-4-one, dihydrochloride]	> 250	–
Cc1ccc2c(n1)C(=O)N(C)Cc1ccc(-c3ccc(F)nc3)cc1-2 [Example 39, 10-(6-Fluoro-pyridin-3-yl)-3,6-dimethyl-6,7-dihydro-4,6-diaza-dibenzo[a, c]cyclohepten-5-one]	–	6.00 to 7.00
Cc1ncccc1-c1ccc2c(c1)-c1ccccc1C(=O)N(C)C21CC1 [Example 21, 10-(2-Methyl-pyridin-3-yl)-6-methyl-6,7-dihydro-spiro[dibenzo[c,e]azepine-7,1′-cyclopropan]-5-one, hydrochloride]	–	6.00 to 7.00
CN1Cc2ccc(-c3ccc(F)nc3)cc2-c2cc(F)cnc2C1=O [Example 47, 2-Fluoro-10-(6-fluoro-pyridin-3-yl)-6-methyl-6,7-dihydro-4,6-diaza-dibenzo[a, c]cyclohepten-5-one]	–	6.00 to 7.00

Results, then the compound that gave them:

melting point [°C]	pEC50 (human mGluR3 (hmGluR3))	Structure (SMILES)
219 to 223	> 7.00	COCn1cc2c(n1)C(=O)N(C)C1(CC1)c1ccc(-c3ccc(F)cn3)cc1-2 [Example 76, 2-(Methoxymethyl)-5-methyl-9-(5-fluoro-pyridin-2-yl)-2H-spiro[benzo[c]pyrazolo[4,3-e]azepine-6,1′-cyclopropan]-4(5H)-one]
198 to 200	–	COCn1cc2c(n1)C(=O)N(C)C1(CC1)c1ccc(-c3ccc(F)nc3)cc1-2 [Example 75, 2-(Methoxymethyl)-5-methyl-9-(6-fluoro-pyridin-3-yl)-2H-spiro[benzo[c]pyrazolo[4,3-e]azepine-6,1′-cyclopropan]-4(5H)-one]
–	5.00 to 6.00	Cc1ncccc1-c1ccc2c(c1)-c1c[nH]nc1C(=O)N(C)C2 [Example 57, 5-Methyl-9-(2-methyl-pyridin-3-yl)-5,6-dihydro-2H-2,3,5-triaza-benzo[e]azulen-4-one]
–	5.00 to 6.00	COCCn1cc2c(n1)C(=O)N(C)Cc1ccc(-c3cccnc3C)cc1-2 [Example 72, 2-(2-Methoxy-ethyl)-5-methyl-9-(2-methyl-pyridin-3-yl)-5,6-dihydro-2H-2,3,5-triaza-benzo[e]azulen-4-one]
